Where a name gives a salt, the structure may show the parent alone.
What was measured:
[1] = patients treated with AChE inhibitor; cited from earlier work
Human M4 = target: T1, Human M4 (Homo sapiens, UniProt P08173); experiment: mAChR M4 cell-based functional assay (calcium flux, potentiation of EC20 acetylcholine response); parameters: Emax: dose or concentration left out as unconfirmed
T1 sequence (P08173 1-479): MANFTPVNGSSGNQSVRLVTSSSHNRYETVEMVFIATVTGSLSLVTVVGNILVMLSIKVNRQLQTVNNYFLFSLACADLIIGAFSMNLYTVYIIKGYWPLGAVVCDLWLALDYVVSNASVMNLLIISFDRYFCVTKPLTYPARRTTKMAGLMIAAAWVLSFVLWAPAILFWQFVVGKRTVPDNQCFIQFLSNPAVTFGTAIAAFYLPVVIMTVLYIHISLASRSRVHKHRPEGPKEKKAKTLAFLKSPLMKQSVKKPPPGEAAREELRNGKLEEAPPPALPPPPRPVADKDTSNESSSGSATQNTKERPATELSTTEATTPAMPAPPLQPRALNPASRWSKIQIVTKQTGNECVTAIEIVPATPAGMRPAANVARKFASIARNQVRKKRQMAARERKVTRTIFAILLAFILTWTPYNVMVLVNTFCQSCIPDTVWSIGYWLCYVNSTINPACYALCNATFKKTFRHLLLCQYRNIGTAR

[2] = Alzheimer's disease patients; cited from earlier work
[3] = similar profiles to known antipsychotic drugs, without causing catalepsy; cited from earlier work

Row | Structure (SMILES) | patients with elevated liver transaminases [1] | EC50 (Human M4) [nM] | Emax (Human M4) [%] | effect on psychotic behavioral symptoms such as delusions, suspiciousness, vocal outbursts, and hallucinations [2] | activity in animal models [3]
1 | Nc1c2c(nc3ccccc13)CCCC2 [tacrine] | about 30% |  |  |  | 
2 | Cc1nnc2sc3c(NC4CN(c5ncc(C(F)(F)F)cn5)C4)nccc3c2c1C [Compound 10, 3,4-dimethyl-N-[1-[5-(trifluoromethyl)pyrimidin-2-yl]azetidin-3-yl]pyrido[4′,3′:4,5]thieno[2,3-c]pyridazin-8-amine hydrochloride] |  | 67.1 | 74.4 |  | 
3 | COc1ccc(CNc2nccc3c2sc2nc(C)c(Cl)c(C)c23)cc1 [Compound 28, 3-Chloro-N-(4-methoxybenzyl)-2,4-dimethylthieno[2,3-b:5,4-c′]dipyridin-8-amine] |  | 4970 | 60.8 |  | 
4 | COc1ccc(CNc2nccc3c2sc2nnc(C)c(C)c23)cc1 [Compound 9, N-[(4-methoxyphenyl)methyl]-3,4-dimethyl-pyrido[4′,3′:4,5]thieno[2,3-c]pyridazin-8-amine hydrochloride] |  |  | 76.8 |  | 
5 | Cc1nnc2sc3c(NCc4ccc(C(C)(C)O)cc4)nccc3c2c1C [Compound 15, 2-[4-[[(3,4-dimethylpyrido[4′,3′:4,5]thieno[2,3-c]pyridazin-8-yl)amino]lmethyl]phenyl]propan-2-ol] |  | 34.3 | 97.4 |  | 
6 | Cc1cc(C)c2c(n1)sc1c(N(C)C)nccc12 [Compound 4, N,N,2,4-tetramethylthieno[2,3-b:5,4-c′]dipyridin-8-amine] |  | 202 | 81.9 |  | 
7 | Cc1cc(C)c2c(n1)sc1c(N3CCCC3)nccc12 [Compound 2, 2,4-dimethyl-8-(pyrrolidin-1-yl)thieno[2,3-b:5,4-c′]dipyridine] |  | 233 | 97.8 |  | 
8 | COc1ccc(CNc2nccc3c2sc2nnc(Cl)c(C)c23)cc1 [Compound 32, 3-chloro-N-(4-methoxybenzyl)-4-methylpyrido[4′,3′:4,5]thieno[2,3-c]pyridazin-8-amine] |  | 58.1 | 77.5 |  | 
9 | CCCCCCOc1nsnc1C1=CCCN(C)C1 [xanomeline] |  |  |  | reduce psychotic behavioral symptoms | active in animal models
10 | COc1ccc(CNc2nccc3c2sc2nc(C)cc(C)c23)cc1F [Compound 25, N-(3-fluoro-4-methoxybenzyl)-2,4-dimethylthieno[2,3-b:5,4-c′]dipyridin-8-amine] |  | > 10000 | 90.3 |  | 
11 | Cc1c(Cl)nnc2sc3c(NC4CN(c5ncc(C(F)(F)F)cn5)C4)nccc3c12 [Compound 33, 3-chloro-4-methyl-N-(1-(5-(trifluoromethyl)pyrimidin-2-yl)azetidin-3-yl)pyrido[4′,3′:4,5]thieno[2,3-c]pyridazin-8-amine, 2,2,2-trifluoroacetic acid salt] |  | 53.9 | 85.3 |  | 

Source: patent US10927126B2, “Positive allosteric modulators of the muscarinic acetylcholine receptor M4” (Vanderbilt University, priority 2016, dated 2021)
